From US8410151B2, “Aminomethyl benzene derivatives” (Actelion Pharmaceuticals Ltd, priority 2009, dated 2013)

Columns and labels:
[1] = target: recombinant human S1P1 receptor (Homo sapiens, UniProt P21453); test: GTPγS assay to determine EC50 values; type: biochemical; conditions: 35S-GTPγS binding, membrane preparations of CHO cells expressing recombinant human S1P1 receptor
Protocol: GTPγS binding assays are performed in 96 well microtiter plates (Nunc, 442587) in a final volume of 200 μl, using membrane preparations of CHO cells expressing recombinant human S1P1 receptor. Assay conditions are 20 mM Hepes (Fluka, 54461), 100 mM NaCl (Fluka, 71378), 5 mM MgCl2 (Fluka, 63064), 0.1% BSA (Calbiochem, 126609), 1 μM GDP (Sigma, G-7127), 2.5% DMSO (Fluka, 41644), 50 pM ^355-GTPγS (Amersham Biosciences, SJ1320). The pH is 7.4. Test compounds are dissolved and diluted in 100% DMSO and pre-incubated at room temperature for 30 min in 150 μl of the above assay buffer, in the absence of ^355-GTPγS. After addition of 50 μl of ^355-GTPγS, the assay is incubated for 1 h at rt. The assay is terminated by transfer of the reaction mixture to a Multiscreen plate (Millipore, MAHFC1H60) using a cell harvester from Packard Biosciences, and the plates are washed with ice-cold 10 mM Na2HPO4/NaH2PO4 (70%/30%), dried, sealed at the bottom and, after addition of 25 μl MicroScint20 (Packard Biosciences, order #6013621), sealed on the top. Membrane-bound ^35S-GTPγS is measured with a TopCount from Packard Biosciences.
EC50 is the concentration of agonist inducing 50% of the maximal specific ^35S-GTPγS binding. Specific binding is determined by subtracting non-specific binding from maximal binding. Maximal binding is the amount of cpm bound to the Multiscreen plate in the presence of 10 μM of S1P. Non-specific binding is the amount of binding in the absence of an agonist in the assay.

[2] = test system: circulating lymphocytes; test: Assessment of in vivo efficacy: circulating lymphocytes after oral administration; parameters: species or system normotensive male Wistar rats; conditions: 3 h after oral administration of 10 mg/kg, male Wistar rats, compared to vehicle-treated group
Protocol: The efficacy of the compounds of formula (I) is assessed by measuring the circulating lymphocytes after oral administration of 3 to 30 mg/kg of a compound of formula (I) to normotensive male Wistar rats. The animals are housed in climate-controlled conditions with a 12 h-light/dark cycle, and have free access to normal rat chow and drinking water.
Blood is collected before and 3, 6 and 24 h after drug administration. Full blood is subjected to hematology using Advia Hematology system (Bayer Diagnostics, Zurich, Switzerland).
All data are presented as mean±SEM. Statistical analyses are performed by analysis of variance (ANOVA) using Statistica (StatSoft) and the Student-Newman-Keuls procedure for multiple comparisons. The null hypothesis is rejected when p<0.05.

Chain of recombinant human S1P1 receptor (P21453 whole entry): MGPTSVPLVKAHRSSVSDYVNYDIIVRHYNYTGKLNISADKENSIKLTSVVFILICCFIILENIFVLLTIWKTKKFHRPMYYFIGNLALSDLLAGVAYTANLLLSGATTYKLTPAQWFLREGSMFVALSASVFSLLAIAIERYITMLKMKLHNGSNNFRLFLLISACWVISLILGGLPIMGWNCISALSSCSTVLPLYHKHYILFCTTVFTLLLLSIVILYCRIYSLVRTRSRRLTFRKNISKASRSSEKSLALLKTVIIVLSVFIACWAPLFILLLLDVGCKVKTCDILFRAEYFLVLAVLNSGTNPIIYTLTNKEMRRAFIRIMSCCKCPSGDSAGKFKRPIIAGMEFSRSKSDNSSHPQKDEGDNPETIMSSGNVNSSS

EC50 [1] [nM] | SMILES | Lymphocyte counts [2] [%]
3.3 | CCCCN(C)Cc1cc(C)cc(-c2nc(-c3cc(C)c(OC[C@@H](O)CNC(=O)CO)c(CC)c3)no2)c1 [Example 18, N—{(S)-3-[4-(5-{3-[(butyl-methyl-amino)-methyl]-5-methyl-phenyl}-[1,2,4]oxadiazol-3-yl)-2-ethyl-6-methyl-phenoxy]-2-hydroxy-propyl}-2-hydroxy-acetamide] | −63.0
7 | CCc1cc(-c2noc(-c3cc(C)cc(CN4CCCC4)c3)n2)cc(C)c1OC[C@@H](O)CNC(=O)CO [Example 22, N—((S)-3-{2-ethyl-6-methyl-4-[5-(3-methyl-5-pyrrolidin-1-ylmethyl-phenyl)-[1,2,4]oxadiazol-3-yl]-phenoxy}-2-hydroxy-propyl)-2-hydroxy-acetamide] | −61.0
2.7 | CCc1cc(-c2noc(-c3cc(C)cc(CN(C)CC)c3)n2)cc(C)c1OC[C@@H](O)CNC(=O)CO [Example 16, N—{(S)-3-[2-ethyl-4-(5-{3-[(ethyl-methyl-amino)-methyl]-5-methyl-phenyl}-[1,2,4]oxadiazol-3-yl)-6-methyl-phenoxy]-2-hydroxy-propyl}-2-hydroxy-acetamide] | −62.1
– | CCc1cc(-c2nc(-c3cc(C)c(OC[C@@H](O)CNC(=O)CO)c(CC)c3)no2)ccc1CN(C)C [Example 99, N—((S)-3-{4-[5-(4-dimethylaminomethyl-3-ethyl-phenyl)-[1,2,4]oxadiazol-3-yl]-2-ethyl-6-methyl-phenoxy}-2-hydroxy-propyl)-2-hydroxy-acetamide] | −61.0
